Measurements from patent US6180651A, “Diarylmethylidenefuran derivatives, processes for their preparation and their uses in therapeutics” (Bristol-Myers Squibb, priority 1996, dated 2001).

Experiments:
[1] = system: carrageenin oedema; assay: anti-inflammatory activity, carrageenin oedema test; assay type: in vivo; conditions: rat, oral; dose which induces 50% decrease in the volume of the oedema; read-out: Anti-inflammatory activity ID50
Procedure: (§1) The anti-inflarnmatory activity of the compounds of the Examples was evaluated by the carrageenin oedema method and the analgesic activity was evaluated by the kaolin arthritis method.
Anti-inflammatory Activity:
The anti-inflammatory activity is evaluated in the rat by the carrageenin oedema test. The product is administered orally at a rate of 2.5 ml/100 g (n=6 animals per dose) 2 h 30 min after oral hyperhydration (2.5 m/100 g); one hour after administration of the product, the oedema is induced by the plantar subcutaneous injection of 2% aqueous carrageenin solution. The results are expressed as the ID50, the dose in mg/kg which induces 50% decrease in the volume of the oedema, calculated by linear regression using the maximum oedema volume obtained for each product tested.

[2] = system: kaolin arthritis; assay: analgesic activity, kaolin arthritis test; assay type: in vivo; conditions: rat, oral; dose which induces 50% decrease of the maximum quotation in the control batch; read-out: Analgesic activity DE50
Procedure: as §1
The analgesic activity is evaluated in the rat by the kaolin arthritis test. Thirty minutes after the intra-articular administration of 10% aqueous kaolin suspension, the product is administered orally at a rate of 1 ml/100 g (n=10 animals per dose). The results are expressed as DE50, the dose in mg/kg which induces 50% decrease of the maximum quotation in the control batch, calculated by linear regression.

[3] = target: T1, COX-2 (Ovis aries, UniProt P79208); assay: inhibition of COX-2 enzymatic activity (PGE2 by EIA); assay type: biochemical, ewe; conditions: for IC50: purified enzyme from ewe placenta, arachidonic acid 4 μM, n=1 to 4 determinations; for Selectivity COX-1/COX-2 ratio: ratio of IC50 COX-1 / IC50 COX-2
T1 construct: purified enzyme from ewe placenta; from tissue; host or cells: ewe placenta (purified enzyme)
T1 sequence (P79208 17-603): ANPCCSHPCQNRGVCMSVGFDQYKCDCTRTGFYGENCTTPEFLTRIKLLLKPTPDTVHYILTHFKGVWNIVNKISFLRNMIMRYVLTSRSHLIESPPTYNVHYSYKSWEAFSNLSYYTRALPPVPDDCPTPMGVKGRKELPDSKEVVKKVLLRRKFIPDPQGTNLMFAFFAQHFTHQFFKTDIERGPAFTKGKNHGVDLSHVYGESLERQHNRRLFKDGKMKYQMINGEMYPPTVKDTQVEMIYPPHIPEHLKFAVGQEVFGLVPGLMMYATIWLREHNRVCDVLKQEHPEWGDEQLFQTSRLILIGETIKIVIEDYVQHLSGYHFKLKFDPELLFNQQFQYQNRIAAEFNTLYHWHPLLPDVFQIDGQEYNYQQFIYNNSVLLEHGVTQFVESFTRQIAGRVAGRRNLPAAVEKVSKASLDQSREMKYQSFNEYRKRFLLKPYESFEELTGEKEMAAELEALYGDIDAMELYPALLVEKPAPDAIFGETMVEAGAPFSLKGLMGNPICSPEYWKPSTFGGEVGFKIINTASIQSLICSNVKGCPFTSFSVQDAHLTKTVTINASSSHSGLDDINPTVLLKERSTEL
Procedure: (§2) Inhibition of the COX-1 and COX-2 Enzymatic Activities The test molecule is preincubated for 10 minutes at 25° C. with 2 U of COX-1 (purified enzyme from ram seminal vesicles) or 1 U of COX-2 (purified enzyme from ewe placenta). Arachidonic acid (6 μM for COX-1, 4 μM for COX-2) is added to the reaction medium and incubation is carried out for 5 minutes at 25° C. When incubation has ended, the enzymatic reaction is stopped by the addition of 1 N HCl and the PGE2 produced is determined by EIA. The results are expressed as IC50, the concentration in nM which corresponds to 50% inhibition of the maximal enzymatic activity on the COX-1 and COX-2 (n=1 to 4 determinations).

[4] = target: T2, COX-1 (Ovis aries, UniProt P05979); assay: inhibition of COX-1 enzymatic activity (PGE2 by EIA); assay type: biochemical; conditions: purified enzyme from ram seminal vesicles; arachidonic acid 6 μM; n=1 to 4 determinations
T2 construct: purified enzyme from ram seminal vesicles; from tissue; host or cells: ram seminal vesicles (purified enzyme)
T2 sequence (P05979 25-600): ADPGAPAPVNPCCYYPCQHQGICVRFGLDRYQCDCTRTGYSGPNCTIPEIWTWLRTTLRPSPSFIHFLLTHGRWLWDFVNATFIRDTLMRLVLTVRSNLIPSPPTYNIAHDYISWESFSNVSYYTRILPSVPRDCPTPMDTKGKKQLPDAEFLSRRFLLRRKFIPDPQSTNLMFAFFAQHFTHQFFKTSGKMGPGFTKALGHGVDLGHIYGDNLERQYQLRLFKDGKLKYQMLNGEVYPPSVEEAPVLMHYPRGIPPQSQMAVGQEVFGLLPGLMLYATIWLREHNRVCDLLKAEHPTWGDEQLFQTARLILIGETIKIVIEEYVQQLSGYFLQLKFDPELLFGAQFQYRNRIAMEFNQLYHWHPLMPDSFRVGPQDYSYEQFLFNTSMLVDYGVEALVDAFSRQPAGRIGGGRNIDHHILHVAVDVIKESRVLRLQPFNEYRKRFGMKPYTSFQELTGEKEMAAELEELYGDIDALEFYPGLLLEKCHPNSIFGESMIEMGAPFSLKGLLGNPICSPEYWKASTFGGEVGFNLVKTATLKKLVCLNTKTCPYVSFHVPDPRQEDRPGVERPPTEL
Procedure: as §2

[5] = gastric tolerance, ulceration index; design: species or system Charles River rats of the CD strain; conditions: rat, in vivo, po
Procedure: The gastric tolerance is studied on Charles River rats of the CD strain weighing between 110 and 150 g. The animals are placed on a water diet 24 h prior to oral administration of the product or the vehicle only at a rate of 1 ml/100 g (n=6 animals per dose). Six hours after administration,the animals are sacrificed and the stomachs are removed and opened along the large curvature. The number of haemorrhagic puncta and sulci per stomach, identified macroscopically, makes it possible to establish an ulceration index (0: no lesion, 1: 1 to 2 lesions, 2: 3 to 4 lesions, 3: 5 to 8 lesions, 4: 9 to 16 lesions, 5: more than 17 lesions) and to estimate the 50% ulcerigenic dose (UD50 =dose inducing 4 to 5 lesions, expressed in mg/kg).

[6] = system: apc/min mice; assay: chemoprevention assay in apc/min mice (model of human familial adenomatous polyposis); assay type: in vivo; conditions: 1.8 mg/kg/day in the feed
Procedure: Chemoprevention Assays in Mice:
The test molecule is given in the feed to apc/min mice, a mouse model of human familial adenomatous polyposis, at 1.8 mg/kg/day for 240 days. The viability and the average tumor burden in animals receiving the test compound is compared to that in control animals.

Structure (SMILES) | IC50 [3] [µM] | Selectivity COX-1/COX-2 ratio [3] | IC50 [4] [µM] | ED50 [1] [mg/kg] | ED50 [2] [mg/kg] | TD50 at 6 h [5] [mg/kg] | mice still alive ([6]; 240 days, control 8/29) | average tumor burden ([6]; 240 days, control 16.3 tumors) [tumors per mouse] | viability compared to control ([6]; after 240 days)
CS(=O)(=O)c1ccc(/C(=C2\CCOC2=O)c2ccc(F)cc2)cc1 [4 (E isomer), (E)-3-[1-(4-fluorophenyl)-1-(4-methanesulphonylphenyl)methylidene]dihydrofuran-2-one] | 0.674 ± 0.046 | > 445 | > 300 | 1.8 | 7.6 | > 1000 |  |  | 
CS(=O)(=O)c1ccc(/C(=C2\CCOC2=O)c2ccc(Cl)cc2)cc1 [8 (Z isomer), (Z)-3-[1-(4-chlorophenyl)-1-(4-methanesulphonylphenyl)methylidene]dihydrofuran-2-one] | 0.182 ± 0.025 | 944 | 172 ± 22.2 | 3.7 | 2.1 | > 1000 | 17/29 | 11.9 | outliving their control counterparts
CS(=O)(=O)c1ccc(/C(=C2\CCOC2=O)c2ccc(F)c(F)c2)cc1 [54 (Z isomer), (Z)-3-[1-(3,4-Difluorophenyl)-1-(4-methanesulphonylphenyl)-methylidene]dihydrofuran-2-one] | 0.71 | > 141 | > 100 | > 30 | 10.8 |  |  |  | 
NS(=O)(=O)c1ccc(/C(=C2\CCOC2=O)c2ccc(F)cc2)cc1 [60 (E isomer), (E)-4-[(4-fluorophenyl)-(2-oxo-dihydrofuran-3-ylidene)methyl]benzenesulphonamide] | 0.296 ± 0.107 | 274 | 81 | 1.7 | 20.9 |  |  |  | 
CS(=O)(=O)c1ccc(/C(=C2\CCOC2=O)c2cc(Cl)cc(Cl)c2)cc1 [70 (Z isomer), (Z)-3-[1-(3,5-dichlorophenyl)-1-(4-methanesulphonylphenyl)methylidene]-dihydro-furan-2-one] | 0.225 | > 444 | > 100 | 5.5 | 21.5 |  |  |  | 
CS(=O)(=O)c1ccc(/C(=C2\CCOC2=O)c2cc(F)cc(F)c2)cc1 [80 (Z isomer), (Z)-3-[1-(3,5-difluorophenyl)-1-(4-methanesulphonylphenyl)methylidene]-dihydro-furan-2-one] | 0.518 | > 193 | > 100 | 4.8 | 5.8 |  |  |  | 
Cc1ccc(/C(=C2/CCOC2=O)c2ccc(S(C)(=O)=O)cc2)cc1 [85 (E isomer), (E)-3-[1-(4-methylphenyl)-1-(4-methanesulphonylphenyl)methylidene]-dihydro-furan-2-one] | 0.35 | > 286 | > 100 | > 30 | > 30 |  |  |  | 
NS(=O)(=O)c1ccc(/C(=C2\CCOC2=O)c2ccc(Cl)cc2)cc1 [125 (Z isomer), (Z)-4-[(4-chlorophenyl)-(2-oxo-dihydro-furan-3-ylidene)-methyl]benzenesulphonamide] | 0.06 | 42 | 2.52 ± 1.31 | 1.8 | 8.5 | > 1000 |  |  | 

Now from value to compound, other results behind:

IC50 [3] [µM] | Selectivity COX-1/COX-2 ratio [3] | IC50 [4] [µM] | Structure (SMILES) | ED50 [1] [mg/kg] | ED50 [2] [mg/kg] | TD50 at 6 h [5] [mg/kg] | mice still alive ([6]; 240 days, control 8/29) | average tumor burden ([6]; 240 days, control 16.3 tumors) [tumors per mouse] | viability compared to control ([6]; after 240 days)
0.205 ± 0.035 | 1510 | 309 ± 27.5 | CS(=O)(=O)c1ccc(/C(=C2\CCOC2=O)c2ccc(F)c(Cl)c2)cc1 [95 (Z isomer), (Z)-3-[1-(3-chloro-4-fluorophenyl)-1-(4-methanesulphonylphenyl)methylidene]-dihydrofuran-2-one] | 1.6 | 5.8 |  |  |  | 
0.131 ± 0.019 | 349 | 45.7 | Cc1ccc(/C(=C2/CCOC2=O)c2ccc(S(N)(=O)=O)cc2)cc1F [130 (Z isomer), (Z)-4-[(3-fluoro-4-methylphenyl)-(2-oxo-dihydrofuran-3-ylidene)methyl]benzenesulphonamide] | 2 | 2.4 |  |  |  | 
0.245 ± 0.076 | 80 | 19.7 | Cc1cc(/C(=C2/CCOC2=O)c2ccc(S(N)(=O)=O)cc2)ccc1F [135 (Z isomer), (Z)-4-[(4-fluoro-3-methylphenyl)-(2-oxo-dihydrofuran-3-ylidene)methyl]benzenesulphonamide] | 3.3 | 6.1 |  |  |  | 
0.073 | 174 | 12.7 | NS(=O)(=O)c1ccc(/C(=C2\CCOC2=O)c2ccc(F)c(Cl)c2)cc1 [143 (Z isomer), (Z)-4-[(3-chloro-4-fluorophenyl)-(2-oxo-dihydro-furan-3-ylidene)methyl]benzenesulphonamide] | 0.7 | 6.4 |  |  |  | 
